In patent US4232008A, “Tetrapeptides and methods” (Ortho Pharmaceutical Corporation, priority 1978, dated 1980):
Square brackets hold non-standard residues; d marks the D form. Ends that are not written are not given here. Peptide text beside a SMILES is read from it. Glx = not defined here; Sar = CNCC(=O)O

Legend:
T cells = conditions: E rosette assay, Bach articles; cited from earlier work
T cells and B cells = conditions: applicant's published investigation; cited from earlier work
[1] = tested on: Th-1+ T-lymphocytes and Bu-1+ B-lymphocytes (differentiation of inducible bone marrow cells); test: chicken induction assay; format: cell-based; conditions: for biological activity: induction of differentiation of Th-1+ T and Bu-1+ B lymphocytes, compared with ubiquitin: chicken bone marrow cells, cytotoxicity index readout; for concentration at which activity was observed: chicken induction assay
From the text: To determine the activity and characteristics of the tetrapeptide produced in Example I, the following chicken induction assay was employed. This assay is described in greater detail in Brand, et. al., Science, 193 319-321 (July 23, 1976) and references contained therein.
Bone marrow from newly-hatched chickens was selected as a source of inducible cells because it lacks an appreciable number of Bu-1^+ or Th-1^+ cells. Pooled cells from femur and tibiotarsus of five newly-hatched chicks of strains SC (Hy-Line) were fractionated by ultracentrifugation on a five-layer discontinuous bovine serum albumin (BSA) gradient. Cells from the two lighter layers were combined, washed, and suspended for incubation at a concentration of 5×10^6 cells per milliliter with the appropriate concentration of test polypeptide in RPMI 1630 medium supplemented with 15 mM hepes, 5 percent γ-globulin-free fetal calf serum, deoxyribonuclease (14 to 18 unit/ml), heparin (5 unit/ml), penicillin (100 unit/ml), and streptomycin (100 μg/ml). Controls were incubated with BSA (1 μg/ml) or medium alone. After incubation, the cells were tested in the cytotoxicity assay using chicken Cl and guinea pig C2 to C9 complement fractions as described in the reference article. The proportion of Bu-1^+ or Th-1^+ cells in each layer was calculated as a cytotoxicity index, 100 (a-b)/a, where a and b are the percentages of viable cells in the complement control and test preparation, respectively. The percentage of cells induced was obtained by subtracting the mean values in the control incubations without inducing agents (usually 1 to 3 percent) from those of the test inductions.
This high dose of ubiquitin inactivates the ubiquitin receptors and thus prevents the induction of cells by any agent which acts through these receptors.

[2] = tested on: cytotoxic lymphocyte precursors (CLP); test: microculture limiting dilution assay of cytotoxic lymphocyte precursor frequencies after injection of the drug; format: in vivo, mice (C57 BL/6J); conditions: in vitro assay of spleen cells after administration
Method: To further illustrate the utility of the subject polypeptides, this example describes a microculture assay for estimating the frequencies of the cytotoxic lymphocytes produced upon stimulation by allogenic antigens. The frequencies of cytotoxic precursors between control animals and animals injected with various concentrations of the drug were compared by a limiting dilution assay.
The test animals (C57 BL/6J) were injected (i.v. or i.p.) with various concentrations of H--SAR--LYS--SAR--GLN--NH2 (the drug; identification no. G040) in 0.2 ml volume 24 hours before they were sacrificed for the experiments.
Cell suspensions from spleens of C57 BL/6J mice or DBA/2J mice were prepared by mincing the organ and pressing them through a wire mesh (60 gauge) with the plunger of a 5 c.c. syringe into a falcon petri dish (falcon 3002, 15×60 mm). The cell suspensions were allowed to stand at room temperature for 10 minutes to let the big chunks of tissue settle. The cell suspensions were then transferred to 15 ml Corning centrifuge tubes (Corning 25310) and spun for 10 minutes at 1500 RPM in the Beckmen TJ-6 centrifuge. […] After the third wash, the responder (C57 BL/6J) cells were resuspended in culture medium and counted in the Coulter counter. […] The DBA cells were then resuspended in the culture medium and counted in the Coulter counter. […]

Compound	biological activity: induction of differentiation of Th-1+ T and Bu-1+ B lymphocytes, compared with ubiquitin [1]	other results
GLX--ALA--LYS--SER--GLN--GLY--GLY--SER--ASN (Glx-AKSQGGSN; reading uncertain; also: N-terminal Glx: Gln or pyroglutamic acid, printed as GLX--ALA--LYS--SER--GLN--GLY--GLY--SER--ASN) [FTS, nonapeptide isolated from porcine serum by Bach; GLX is glutamine or pyroglutamic acid]	–	differentiation of T cells versus B cells (T cells): selectively differentiated T cells (and not B cells); differentiation of T cells and B cells (T cells and B cells): differentiated both T cells and B cells
QAKSQGGSN [H--GLN--ALA--LYS--SER--GLN--GLY--GLY--SER--ASN--OH, reference compound]	biological activity similar to that of ubiquitin	–
C[C@@H](N)C(=O)N[C@@H](CCCCN)C(=O)N[C@H](C)C(=O)N[C@@H](CCC(N)=O)C(N)=O [H--D--ALA--LYS--D--ALA--GLN--NH2] (H-[dA]K[dA]Q-NH2)	biological activity similar to that of ubiquitin	–
CNCC(=O)N[C@@H](CCCCN)C(=O)N[C@H](C)C(=O)N[C@@H](CCC(N)=O)C(N)=O [H--SAR--LYS--D--ALA--GLN--NH2] (H-[Sar]K[dA]Q-NH2)	biological activity similar to that of ubiquitin	–
CNCC(=O)N[C@@H](C)C(=O)N[C@@H](CCCCN)C(=O)N[C@@H](CO)C(=O)N[C@@H](CCC(N)=O)C(=O)O [H--SAR--ALA--LYS--SER--GLN--OH] (H-[Sar]AKSQ-OH)	biological activity similar to that of ubiquitin	–
C[C@H](N)C(=O)N[C@@H](CCCCN)C(=O)N[C@@H](CO)C(=O)N[C@@H](CCC(N)=O)C(=O)O [Example I, H--ALA--LYS--SER--GLN--OH] (H-AKSQ-OH)	biological activity similar to that of ubiquitin	concentration at which activity was observed [1]: ng/ml concentrations
CNCC(=O)N[C@@H](CCCCN)C(=O)N(C)CC(=O)N[C@@H](CCC(N)=O)C(N)=O [H--SAR--LYS--SAR--GLN--NH2] (H-[Sar]K[Sar]Q-NH2)	biological activity similar to that of ubiquitin	effect on in vivo production of cytotoxic lymphocyte precursors upon stimulation by allogenic antigens [2]: promoted the production of cytotoxic lymphocyte precursors; concentration at which activity was observed [1]: ≥ 0.1 pg/mL
QAKSQ [H--GLN--ALA--LYS--SER--GLN--OH]	biological activity similar to that of ubiquitin	–
